# Test results reported in patent publication US7141557B2, “Lipid analogs for treating viral infections” (Wake Forest University, priority 1994, dated 2006).
# Experiments:
# CEM-SS cells = assay: Cytotoxicity by uptake of TdR-H3 into total DNA in CEM-SS cells; assay type: cell-based; details: serial concentrations of compound
# HIV-1 = assay: Anti-HIV-1 syncytial plaque assay using CEM-SS cell monolayers; assay type: cell-based, human immunodeficiency virus type 1 (HIV-1); details: for IC50: HIV-1 syncytial plaque formation, CEM-SS cell monolayers, plaques counted at five days; for inhibition of HIV-1 activity in CEM-SS cells: in nanomolar concentration
# Description: In brief, CEM-SS cell monolayers were infected with HIV-1. Infected cells were overlaid with RPMI-1640 medium plus 10 percent fetal bovine serum (FBS) supplemented with different concentrations of inhibitor. Plaques were counted at five days after infection. In this assay HIV-1 syncytial plaques are seen as large, multicellular foci (10 to 25 nuclei/syncytium) that appear either brown and granular or clear. Since the number of HIV-1 syncytial plaques correlates with reverse transcriptase (RT) and p24 core antigen activity in the HIV-1 infected cell overlay fluids, the syncytial plaque assay can be used to quantify the amount of infectious virus. Reverse transcriptase activity was assayed according to a described procedure (B. J. Poeisz et al., Proc. Natl. Acad. Scie. (U.S.A.) 77, 7415 (1980)). The activity of p24 core antigen induced by HIV-1 infection of CEM-SS cells was measured spectrophotometrically using the commercial Coulter EIA.
# HepG2 cells = details: read-out: cytotoxicity (TC50); HepG2 cells transfected with HBV genomes; neutral red dye uptake
# Protocol: Human hepatoblastomas (HepG2) cells were tranfected with plasmid DNA containing tandem copies of HBV genomes. These cells constituitively replicate HBV particles. HepG2 cells were treated with varying concentrations of CP-128 to determine the toxic cell concentration (TC50) by neutral red dye uptake. Also, the inhibitory concentration (IC50) of CP-128 for HBV replication was determined by ELISA.
# HBV = assay: Inhibition of HBV replication in transfected HepG2 cells by ELISA; assay type: cell-based; details: read-out: anti-HBV activity (IC50)
# Description: These cells constituitively replicate HBV particles.
# [1] = tested on: HBV-induced DNA, core antigen (HBcAg) and "e" antigen (HBeAg); assay: Mechanism studies: cellular production of HBV-induced DNA, core antigen and e antigen; assay type: cell-based
Compound,IC50 (CEM-SS cells),IC50 (HIV-1),inhibition of HIV-1 activity in CEM-SS cells (HIV-1),CC50 (HepG2 cells),IC50 (HBV),"effect on cellular production of HBV-induced DNA, core antigen (HBcAg) and ""e"" antigen (HBeAg) [1]"
"CCCCCCCCCCCC(=O)NCC(COP(=O)([O-])OCC[N+](C)(C)C)OCCCCCCCCCC (stereo not shown) [CP-128, 1-dodecanamido-2-decyloxypropyl-3-phosphocholine]",31.6 µM,0.14 µM,substantially inhibit,61.7 µM,15.6 µM,inhibitory effect
"CCCCCCCCCCCCOCC(COP(=O)([O-])OCC[N+](C)(C)C)OCCCCCCCCCC (stereo not shown) [CP-129, 1-dodecyloxy-2-decyloxypropyl-3-phosphocholine]",75.7 µM,0.64 µM,substantially inhibit,–,–,–
"CCCCCCCCCCCC(=O)NCC(COP(=O)([O-])OCC[N+](C)(C)C)OCCCCCCCC (stereo not shown) [CP-130, 1-dodecanamido-2-octyloxypropyl-3-phosphocholine]",67.2 µM,0.11 µM,substantially inhibit,–,–,–
"CCCCCCCCCCCCOC(CNC(=O)CCCCCCCCCCC)COP(=O)([O-])OCC[N+](C)(C)C (stereo not shown) [CP-131, 1-dodecanamido-2-dodecyloxypropyl-3-phosphocholine]",36.6 µM,0.32 µM,substantially inhibit,–,–,–
"CCCCCCCCCCCCCCCCSC1CCCC(OP(=O)([O-])OCC[N+](C)(C)C)C1 (stereo not shown) [INK-1, 3-hexadecylthio-cyclohexylphosphocholine]",–,–,substantially inhibit,–,–,–
